# Laboratory results: Sander's compilation of Henry's law constants
# Experiments:
# [1] = Henry solubility constant Hcp at 323 K (mol/(m3 Pa)); conditions: reference: Dallos et al. (1983)
# [2] = Henry solubility constant Hcp at 283 K (mol/(m3 Pa)); conditions: reference: Heal et al. (1995)
# [3] = Henry solubility constant Hcp at 298.15 K (mol/(m3 Pa))
# [4] = Henry solubility constant Hcp at 290 K (mol/(m3 Pa)); conditions: reference: Disselkamp et al. (1999)
# [5] = Henry solubility constant Hcp at 275 K (mol/(m3 Pa)); conditions: reference: Katrib et al. (2001)
# [6] = Henry solubility constant Hcp at 287 K (mol/(m3 Pa)); conditions: reference: Hempel (1901)
# [7] = Henry solubility constant Hcp at 333 K (mol/(m3 Pa)); conditions: reference: Severit (1997)
# [8] = Henry solubility constant Hcp at 310 K (mol/(m3 Pa)); conditions: reference: Power and Stegall (1970)
# [9] = Henry solubility constant Hcp at 293 K (mol/(m3 Pa)); conditions: reference: da Silva et al. (1980)
# [10] = Henry solubility constant Hcp at 273 K (mol/(m3 Pa)); conditions: reference: Razumovskii and Zaikov (1971)
# [11] = Henry solubility constant Hcp at 353 K (mol/(m3 Pa)); conditions: reference: St-Pierre et al. (2014)
smiles,measurement,setting,value
Nc1ccccc1 [aminobenzene],Henry solubility constant Hcp at 323 K,[1],1.1
same,Henry solubility constant Hcp at 283 K,[2],1.2
same,Henry solubility constant Hcp,[3]; reference: Jayasinghe et al. (1992),5
ClBr [bromine chloride],Henry solubility constant Hcp at 290 K,[4],0.015
same,Henry solubility constant Hcp at 275 K,[5],< 0.062
same,Henry solubility constant Hcp,[3]; reference: Bartlett and Margerum (1999),0.0093
O=C=S [carbon oxide sulfide],Henry solubility constant Hcp,[3]; reference: De Bruyn et al. (1995b),0.00022
same,Henry solubility constant Hcp,[3]; reference: Stock and Kuß (1917),0.00024
same,Henry solubility constant Hcp,[3]; reference: Winkler (1906),0.00021
same,Henry solubility constant Hcp,[3]; reference: Winkler (1907),0.00021
same,Henry solubility constant Hcp at 287 K,[6],0.00034
[Cl][Hg][Cl] [mercury dichloride],Henry solubility constant Hcp at 333 K,[7],1000
O=O [oxygen],Henry solubility constant Hcp at 310 K,[8],1.1e-05
same,Henry solubility constant Hcp,[3]; reference: Benson et al. (1979),1.3e-05
same,Henry solubility constant Hcp,[3]; reference: Bohr and Bock (1891),1.3e-05
same,Henry solubility constant Hcp,[3]; reference: Bunsen (1855a),1.2e-05
same,Henry solubility constant Hcp,[3]; reference: Carpenter (1966),1.2e-05
same,Henry solubility constant Hcp,[3]; reference: Cosgrove and Walkley (1981),1.3e-05
same,Henry solubility constant Hcp,[3]; reference: Cramer (1980),1.3e-05
same,Henry solubility constant Hcp,[3]; reference: Fox (1909),1.3e-05
same,Henry solubility constant Hcp,[3]; reference: Geffcken (1904),1.2e-05
same,Henry solubility constant Hcp,[3]; reference: Millero et al. (2002a),1.2e-05
same,Henry solubility constant Hcp,[3]; reference: Millero et al. (2002b),1.2e-05
same,Henry solubility constant Hcp,[3]; reference: Morrison and Billett (1952),1.3e-05
same,Henry solubility constant Hcp,[3]; reference: Murray and Riley (1969),1.3e-05
same,Henry solubility constant Hcp,[3]; reference: Orcutt and Seevers (1937a),1.2e-05
same,Henry solubility constant Hcp,[3]; reference: Rettich et al. (1981),1.3e-05
same,Henry solubility constant Hcp,[3]; reference: Rettich et al. (2000),1.3e-05
same,Henry solubility constant Hcp,[3]; reference: Sherwood et al. (1991),1.3e-05
same,Henry solubility constant Hcp,[3]; reference: Shoor et al. (1969),1.2e-05
same,Henry solubility constant Hcp,[3]; reference: Timofejew (1890),1.2e-05
same,Henry solubility constant Hcp,[3]; reference: Winkler (1891b),1.3e-05
same,Henry solubility constant Hcp at 293 K,[9],1.2e-05
same,Henry solubility constant Hcp at 273 K,[10],0.00014
O=S=O [sulfur dioxide],Henry solubility constant Hcp at 353 K,[11],0.4
same,Henry solubility constant Hcp,[3]; reference: Johnstone and Leppla (1934),0.012
same,Henry solubility constant Hcp,[3]; reference: Schoenfeld (1855),0.014
